From BindingDB's records for doi:10.1016/s0960-894x(99)00495-3 (Tokyo University of Pharmacy & Life Science, 1999)

Assay: Compound was evaluated for inhibition of PNP-catalyzed inosine […] in Cellulomonas sp

Structure (SMILES)	IC50 [nM]
O=c1[nH]cnc2c1ncn2C[C@@H]1COC[C@@H]1CC(F)(F)P(=O)(O)O [{1,1-Difluoro-2-[(3R,4R)-4-(6-oxo-1,6-dihydro-purin-9-ylmethyl)-tetrahydro-furan-3-yl]-ethyl}-phosphonic acid]	35
O=c1[nH]cnc2c1ncn2CC[C@@H]1C[C@H]1C(F)(F)P(=O)(O)O [(Difluoro-{(1R,2S)-2-[2-(6-oxo-1,6-dihydro-purin-9-yl)-ethyl]-cyclopropyl}-methyl)-phosphonic acid]	70
Nc1nc2c(ncn2CCCCC(F)(F)P(=O)(O)O)c(=O)[nH]1 [9-(5',5'-difluoro-5'-phosphonopentyl)guanine]	540
Nc1nc2c(ncn2CC[C@@H]2C[C@H]2C(F)(F)P(=O)(O)O)c(=O)[nH]1 [({(1R,2S)-2-[2-(2-Amino-6-oxo-1,6-dihydro-purin-9-yl)-ethyl]-cyclopropyl}-difluoro-methyl)-phosphonic acid]	390
O=c1[nH]cnc2c1ncn2C[C@H]1COC[C@@H]1CC(F)(F)P(=O)(O)O [{1,1-Difluoro-2-[(3R,4S)-4-(6-oxo-1,6-dihydro-purin-9-ylmethyl)-tetrahydro-furan-3-yl]-ethyl}-phosphonic acid]	37
